According to paper PMC10192158 (Cancer Chemotherapy and Pharmacology, 2023):
“And” between values parts separate entries of the source, which are not always exact repeats. Equal entries are not always repeated. Where two headings read alike, the source gives them in different places.

Tests used:
VEGFR2 [1] = details: cited from earlier work
panel of 270 kinases [2] = assay: Selectivity across panel of 270 kinases (residual activity radar chart, kinome tree)
KIT = target: T1, KIT (Homo sapiens, UniProt P10721); assay: Kinase panel enzyme activity assay (MSA or IMAP), percent inhibition at fixed concentration; type: biochemical
T1 construct: purchased Carna Biosciences, Inc. (Kobe, Japan)
T1 sequence (P10721 26-976): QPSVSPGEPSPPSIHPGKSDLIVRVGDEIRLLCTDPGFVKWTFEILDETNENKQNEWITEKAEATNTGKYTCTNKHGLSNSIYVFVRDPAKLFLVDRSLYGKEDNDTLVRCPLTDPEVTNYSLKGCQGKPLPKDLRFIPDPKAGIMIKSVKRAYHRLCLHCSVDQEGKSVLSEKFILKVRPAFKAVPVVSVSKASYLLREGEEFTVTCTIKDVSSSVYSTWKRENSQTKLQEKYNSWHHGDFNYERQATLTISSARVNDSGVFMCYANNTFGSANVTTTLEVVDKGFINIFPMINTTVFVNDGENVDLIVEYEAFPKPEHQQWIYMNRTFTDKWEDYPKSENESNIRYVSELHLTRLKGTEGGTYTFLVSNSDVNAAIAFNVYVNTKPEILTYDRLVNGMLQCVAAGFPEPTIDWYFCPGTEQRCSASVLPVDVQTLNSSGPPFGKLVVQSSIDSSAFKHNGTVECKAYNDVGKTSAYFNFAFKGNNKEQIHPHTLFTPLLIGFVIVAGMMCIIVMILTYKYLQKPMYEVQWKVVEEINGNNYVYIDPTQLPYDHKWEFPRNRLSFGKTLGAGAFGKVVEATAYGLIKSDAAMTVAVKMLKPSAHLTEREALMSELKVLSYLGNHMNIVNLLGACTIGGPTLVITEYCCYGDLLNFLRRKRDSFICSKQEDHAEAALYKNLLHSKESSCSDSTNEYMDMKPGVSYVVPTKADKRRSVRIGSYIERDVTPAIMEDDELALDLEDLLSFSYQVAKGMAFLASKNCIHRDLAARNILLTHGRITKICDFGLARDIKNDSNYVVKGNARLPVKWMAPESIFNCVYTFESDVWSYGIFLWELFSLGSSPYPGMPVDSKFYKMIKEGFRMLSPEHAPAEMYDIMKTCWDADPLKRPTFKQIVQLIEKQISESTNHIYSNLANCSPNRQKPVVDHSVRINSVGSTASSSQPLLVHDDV
Protocol: (§1) Kinase assays were performed to evaluate inhibitor activity on VEGFR2 and other kinases using either mobility shift assays (MSA) or immobilized metal ion affinity particle (IMAP) assays at Carna Biosciences, Inc (Kobe, Japan). The panel of kinases assayed comprises all wild-type kinases available for profiling at Carna Biosciences, Inc. For VEGFR2, the same cytoplasmic domain was used as in the SPR binding assay.
(§2) Off-chip MSA was performed by preparing a 4 × substrate/ATP/metal solution using kit buffer (20 mM HEPES, 0.01% Triton X-100, 5 mM DTT, pH 7.5), and a 2 × kinase solution was prepared in assay buffer (20 mM HEPES, 0.01% TritonX-100, 1 mM DTT, pH 7.5). […] A 4 × compound solution and the 4 × substrate/ATP/metal solution, and 2 × kinase solution were mixed and incubated in a 384-well microplate at room temperature for 1 or 5 h, dependent on the kinase. Termination Buffer (QuickScout Screening Assist MSA; Carna Biosciences) was added to the well, and the reaction mixture was applied to the LabChip™ system (Perkin Elmer) to separate and quantitate the product and substrate peptide peaks. The kinase reaction was measured using the product ratio calculated from the peak heights of the product (P) and substrate (S) peptides: [P/(P + S)].
(§3) For the IMAP assays, a 4 × substrate/ATP/metal solution and 2 × kinase solution were prepared using assay buffer (20 mM HEPES, 0.01% Tween 20, 2 mM DTT, pH 7.4). ATP concentrations in the solution were within twofold of the affinity for ATP (KM,ATP) for each individual kinase. Then, the 4 × compound solution, 4 × substrate/ATP/metal solution, and 2 × kinase solution were mixed and incubated in a single well of a polystyrene 384-well black microplate. After incubating for 1 h at room temperature, IMAP-binding reagent (IMAP Screening Express kit; Molecular Devices) was added to the well and incubated for 30 min. The kinase reaction in each well was measured via fluorescence polarization at excitation of 485 nm and emission of 530 nm.
(§4) IC50 values were calculated by fitting a 4-parameter logistic curve to the percentage inhibition values at the tested concentrations.
(§5) To compare the selectivity of rivoceranib and the 10 reference inhibitors, we performed either IMAP assays or off-chip MSA to assess the residual kinase activity of a panel of 270 kinases in the presence of 160 nM or 1600 nM rivoceranib or 1000 nM of reference inhibitor. The 270 kinases represent a broad representation of the more than 500 kinases encoded by the human genome.

PDGFRβ = target: T2, PDGFRβ (Homo sapiens, UniProt P09619); assay: as above; type: biochemical
T2 construct: purchased Carna Biosciences, Inc. (Kobe, Japan)
T2 sequence (P09619 33-1106): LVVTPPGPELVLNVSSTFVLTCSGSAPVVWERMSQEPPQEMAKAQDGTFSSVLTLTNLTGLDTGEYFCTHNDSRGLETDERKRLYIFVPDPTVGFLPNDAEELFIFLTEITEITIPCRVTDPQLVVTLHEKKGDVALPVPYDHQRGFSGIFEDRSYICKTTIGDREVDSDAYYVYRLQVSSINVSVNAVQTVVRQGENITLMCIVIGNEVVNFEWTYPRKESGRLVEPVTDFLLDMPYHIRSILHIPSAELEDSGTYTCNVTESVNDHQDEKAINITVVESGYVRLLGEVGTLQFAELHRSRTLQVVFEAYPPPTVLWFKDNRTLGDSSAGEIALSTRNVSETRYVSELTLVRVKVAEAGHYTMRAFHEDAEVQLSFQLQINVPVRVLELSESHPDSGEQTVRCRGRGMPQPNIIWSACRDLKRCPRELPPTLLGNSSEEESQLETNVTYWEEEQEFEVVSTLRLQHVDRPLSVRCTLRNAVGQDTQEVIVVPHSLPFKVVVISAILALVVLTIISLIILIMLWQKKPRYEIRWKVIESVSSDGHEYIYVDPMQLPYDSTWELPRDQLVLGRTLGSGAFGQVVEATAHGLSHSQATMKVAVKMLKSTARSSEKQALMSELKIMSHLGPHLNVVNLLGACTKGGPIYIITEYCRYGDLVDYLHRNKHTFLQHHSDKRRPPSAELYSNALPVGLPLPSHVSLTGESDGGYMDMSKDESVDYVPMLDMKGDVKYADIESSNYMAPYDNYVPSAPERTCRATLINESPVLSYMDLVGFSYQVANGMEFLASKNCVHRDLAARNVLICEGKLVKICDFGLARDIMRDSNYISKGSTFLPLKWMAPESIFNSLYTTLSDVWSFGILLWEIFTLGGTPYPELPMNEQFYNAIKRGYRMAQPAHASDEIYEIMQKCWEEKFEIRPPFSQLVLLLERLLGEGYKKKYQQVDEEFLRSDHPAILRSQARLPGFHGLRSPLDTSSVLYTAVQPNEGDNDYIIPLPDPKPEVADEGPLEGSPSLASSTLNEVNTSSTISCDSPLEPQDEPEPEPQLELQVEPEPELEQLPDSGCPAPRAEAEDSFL
Protocol: as §1, §2, §3, §4, §5

RET = target: T3, RET (Homo sapiens, UniProt P07949); assay: as above; type: biochemical
T3 construct: purchased Carna Biosciences, Inc. (Kobe, Japan)
T3 sequence (P07949 29-1114): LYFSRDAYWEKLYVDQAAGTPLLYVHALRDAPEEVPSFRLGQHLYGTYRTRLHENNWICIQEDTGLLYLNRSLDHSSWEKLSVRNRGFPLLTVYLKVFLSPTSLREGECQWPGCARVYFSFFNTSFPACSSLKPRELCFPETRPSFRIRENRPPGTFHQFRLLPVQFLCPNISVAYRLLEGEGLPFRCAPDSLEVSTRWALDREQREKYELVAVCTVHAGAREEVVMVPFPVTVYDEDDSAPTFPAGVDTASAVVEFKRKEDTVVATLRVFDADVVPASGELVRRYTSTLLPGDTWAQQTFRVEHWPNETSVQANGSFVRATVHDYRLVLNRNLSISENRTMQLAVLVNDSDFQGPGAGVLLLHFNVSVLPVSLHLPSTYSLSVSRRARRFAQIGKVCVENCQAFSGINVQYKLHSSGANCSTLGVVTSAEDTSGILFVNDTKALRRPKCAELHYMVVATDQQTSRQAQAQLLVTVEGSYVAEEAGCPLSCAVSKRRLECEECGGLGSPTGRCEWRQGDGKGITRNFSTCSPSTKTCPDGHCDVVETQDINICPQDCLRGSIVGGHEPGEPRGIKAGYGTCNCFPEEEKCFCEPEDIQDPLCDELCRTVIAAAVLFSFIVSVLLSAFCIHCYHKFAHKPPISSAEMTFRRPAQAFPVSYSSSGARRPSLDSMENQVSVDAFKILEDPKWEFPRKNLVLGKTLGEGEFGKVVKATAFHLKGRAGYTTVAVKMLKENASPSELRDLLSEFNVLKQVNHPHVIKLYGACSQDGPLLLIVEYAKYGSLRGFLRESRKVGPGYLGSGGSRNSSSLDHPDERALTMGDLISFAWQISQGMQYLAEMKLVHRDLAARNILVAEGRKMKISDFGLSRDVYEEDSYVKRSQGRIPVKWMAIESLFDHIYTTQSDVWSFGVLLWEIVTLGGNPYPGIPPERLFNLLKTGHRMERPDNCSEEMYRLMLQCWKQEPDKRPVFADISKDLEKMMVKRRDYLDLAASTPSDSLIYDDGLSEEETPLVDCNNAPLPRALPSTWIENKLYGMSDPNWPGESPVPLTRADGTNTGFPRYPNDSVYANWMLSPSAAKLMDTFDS
Protocol: as §1, §2, §3, §4, §5

VEGFR1/FLT1 = target: T4, VEGFR1/FLT1 (Homo sapiens, UniProt P17948); assay: as above; type: biochemical
T4 construct: purchased Carna Biosciences, Inc. (Kobe, Japan)
Protocol: as §1, §2, §3, §4, §5

VEGFR2/KDR = target: T5, VEGFR2/KDR (Homo sapiens, UniProt P35968); assay: as above; type: biochemical
T5 construct: cytoplasmic domain of VEGFR2, encompassing amino acid residue 790 to 1356 (C-terminus); purchased Carna Biosciences, Inc. (Kobe, Japan); host or cells: insect cells
T5 sequence (P35968 790-1356): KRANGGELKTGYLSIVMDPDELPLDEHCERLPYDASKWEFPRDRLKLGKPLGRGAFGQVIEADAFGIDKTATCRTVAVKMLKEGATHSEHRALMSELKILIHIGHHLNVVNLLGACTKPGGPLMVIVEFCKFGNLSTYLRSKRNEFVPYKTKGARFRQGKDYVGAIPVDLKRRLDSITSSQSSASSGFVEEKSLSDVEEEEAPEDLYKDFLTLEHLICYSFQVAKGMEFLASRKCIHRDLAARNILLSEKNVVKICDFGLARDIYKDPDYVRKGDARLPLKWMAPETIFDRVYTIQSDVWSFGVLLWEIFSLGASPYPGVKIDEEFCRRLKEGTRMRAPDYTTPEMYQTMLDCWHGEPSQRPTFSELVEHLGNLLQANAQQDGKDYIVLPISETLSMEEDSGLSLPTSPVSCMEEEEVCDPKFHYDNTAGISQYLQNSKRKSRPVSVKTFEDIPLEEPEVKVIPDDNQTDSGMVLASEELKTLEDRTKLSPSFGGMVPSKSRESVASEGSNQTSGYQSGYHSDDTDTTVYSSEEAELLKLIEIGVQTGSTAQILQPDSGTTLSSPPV
Protocol: as §1, §2, §3, §4, §5

VEGFR3/FLT4 = target: T6, VEGFR3/FLT4 (Homo sapiens, UniProt P35916); assay: as above; type: biochemical
T6 construct: purchased Carna Biosciences, Inc. (Kobe, Japan)
T6 sequence (P35916 25-1363): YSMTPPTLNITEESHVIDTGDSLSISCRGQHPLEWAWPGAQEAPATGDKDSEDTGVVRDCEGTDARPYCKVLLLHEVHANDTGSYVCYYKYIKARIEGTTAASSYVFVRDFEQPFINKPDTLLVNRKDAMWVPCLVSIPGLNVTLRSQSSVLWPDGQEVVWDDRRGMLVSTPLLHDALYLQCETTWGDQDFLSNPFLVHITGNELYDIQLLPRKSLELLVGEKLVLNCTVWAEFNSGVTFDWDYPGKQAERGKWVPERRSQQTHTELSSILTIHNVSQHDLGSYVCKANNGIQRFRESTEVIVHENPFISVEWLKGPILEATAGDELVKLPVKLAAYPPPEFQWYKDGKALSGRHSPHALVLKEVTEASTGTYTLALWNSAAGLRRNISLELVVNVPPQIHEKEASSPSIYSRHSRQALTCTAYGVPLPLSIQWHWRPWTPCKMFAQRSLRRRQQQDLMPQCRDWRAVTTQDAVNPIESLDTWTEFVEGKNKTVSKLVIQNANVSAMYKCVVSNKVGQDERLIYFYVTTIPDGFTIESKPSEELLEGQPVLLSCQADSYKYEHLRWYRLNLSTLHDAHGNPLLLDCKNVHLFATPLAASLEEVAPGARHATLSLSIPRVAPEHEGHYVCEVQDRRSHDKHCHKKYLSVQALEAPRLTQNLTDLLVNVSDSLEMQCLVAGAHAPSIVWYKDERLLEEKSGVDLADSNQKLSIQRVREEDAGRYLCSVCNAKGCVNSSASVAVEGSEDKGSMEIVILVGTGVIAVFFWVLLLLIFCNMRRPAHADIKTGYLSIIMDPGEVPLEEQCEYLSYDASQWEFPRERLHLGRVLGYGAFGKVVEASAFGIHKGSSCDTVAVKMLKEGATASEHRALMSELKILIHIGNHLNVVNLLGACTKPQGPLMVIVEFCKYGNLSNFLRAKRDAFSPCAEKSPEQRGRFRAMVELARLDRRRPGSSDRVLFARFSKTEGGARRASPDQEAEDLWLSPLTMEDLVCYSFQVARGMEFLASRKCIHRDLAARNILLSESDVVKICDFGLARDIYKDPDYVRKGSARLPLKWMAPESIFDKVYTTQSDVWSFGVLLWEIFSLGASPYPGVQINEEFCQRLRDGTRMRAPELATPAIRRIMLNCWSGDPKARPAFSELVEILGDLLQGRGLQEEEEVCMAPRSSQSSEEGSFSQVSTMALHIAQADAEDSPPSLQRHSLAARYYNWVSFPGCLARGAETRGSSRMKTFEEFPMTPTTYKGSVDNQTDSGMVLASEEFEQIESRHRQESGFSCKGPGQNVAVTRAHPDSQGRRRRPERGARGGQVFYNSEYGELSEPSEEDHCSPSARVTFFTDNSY
Protocol: as §1, §2, §3, §4, §5

VEGFR2 [3] = target: T7, VEGFR2 (Homo sapiens, UniProt P35968); assay: VEGFR2 kinase activity, off-chip mobility shift assay (MSA), dose-response
T7 sequence (P35968 790-1356): as the sequence (P35968 790-1356) above

VEGFR2 [4] = target: T7, VEGFR2; assay: Surface plasmon resonance (Biacore T200) binding of rivoceranib to biotinylated VEGFR2 cytoplasmic domain
panel of 270 kinases [5] = tested on: panel of 270 kinases; set-up: method as in PMID 24651269, PMID 30381447; details: 1000 nM reference inhibitor, compared among all inhibitors profiled; cited from earlier work
[6] = 1000 nM reference inhibitor, panel of 270 kinases
[7] = SPR, individual replicates 1a, 1b, 2a, 2b

COc1cc2nccc(Oc3ccc(NC(=O)NC4CC4)c(Cl)c3)c2cc1C(N)=O [lenvatinib]
IC50 (VEGFR2 [1]; read-out: Reported IC50 values (VEGFR2), published literature, ref Brody T., 2018): 4 nM | Number of kinases inhibited by 50% or more (panel of 270 kinases [2]; [6]): 31

CNC(=O)c1cc(Oc2ccc(NC(=O)Nc3ccc(Cl)c(C(F)(F)F)c3)c(F)c2)ccn1 [regorafenib]
IC50 (VEGFR2 [1]; read-out: Reported IC50 values (VEGFR2), published literature, ref Wilhelm SM et al., Int J Cancer. 2011): 4 nM

N#CC1(c2ccc(NC(=O)c3cccnc3NCc3ccncc3)cc2)CCCC1 [rivoceranib]
inhibition at […] (KIT; rivoceranib 160 nM): 47.3% | Percent inhibition (KIT; rivoceranib 1600 nM): 92.58% | inhibition at […] (KIT; rivoceranib 1600 nM): 92.6% | Percent inhibition (PDGFRβ; rivoceranib 160 nM): 62.11% | inhibition at […] (PDGFRβ; rivoceranib 160 nM): 62.1% | inhibition at […] (PDGFRβ; rivoceranib 1600 nM): 94.8% | Percent inhibition (RET; rivoceranib 160 nM): 71.72% | inhibition at […] (RET; rivoceranib 160 nM): 71.7% | Percent inhibition (RET; rivoceranib 1600 nM): 97.89% | inhibition at […] (RET; rivoceranib 1600 nM): 97.9% | Percent inhibition (VEGFR1/FLT1; rivoceranib 160 nM): 93.27% | inhibition at […] (VEGFR1/FLT1; rivoceranib 160 nM): 93.3% | Percent inhibition (VEGFR1/FLT1; rivoceranib 1600 nM): 99.53% | inhibition at […] (VEGFR1/FLT1; rivoceranib 1600 nM): 99.5% | Percent inhibition (VEGFR2/KDR; rivoceranib 160 nM): 96.12% | inhibition at […] (VEGFR2/KDR; rivoceranib 160 nM): 96.1% | Percent inhibition (VEGFR2/KDR; rivoceranib 1600 nM): 100.79% | inhibition at […] (VEGFR2/KDR; rivoceranib 1600 nM): 101% | inhibition at […] (VEGFR3/FLT4; rivoceranib 160 nM): 92.9% | Percent inhibition (VEGFR3/FLT4; rivoceranib 1600 nM): 99.33% | inhibition at […] (VEGFR3/FLT4; rivoceranib 1600 nM): 99.3% | IC50 (VEGFR2 [1]; read-out: IC50 for VEGFR2 kinase inhibition in a previous study, ATP 10 µM): 1 nM | IC50 (VEGFR2 [3]): 16 nM | Overall residual kinase activity across the panel of kinases (panel of 270 kinases [2]; 160 nM and 1600 nM rivoceranib, compared among all inhibitors profiled): the greatest residual kinase activity | Kd (VEGFR2 [4]; KD (binding affinity, KD = kd/ka), SPR, single-cycle kinetics, 22 °C, 1:1 model, based on four replicates): 2.08 nM and 2 nM and ~2 nM | Kd (VEGFR2 [4]; KD, SPR, individual replicates 1a, 1b, 2a, 2b): 3.06 nM and 1.84 nM and 1 nM and 3.34 nM | kd (VEGFR2 [4]; SPR, geometric average of four replicates): 0.000807 s⁻¹ | ka (VEGFR2 [4]; [7]): 303000 M⁻¹ s⁻¹ and 253000 M⁻¹ s⁻¹ and 445000 M⁻¹ s⁻¹ and 659000 M⁻¹ s⁻¹ | kd (VEGFR2 [4]; [7]): 0.000775 s⁻¹ and 0.000557 s⁻¹ and 0.000445 s⁻¹ and 0.0022 s⁻¹ | kon (VEGFR2 [4]; read-out: ka, SPR, geometric average of four replicates): 387000 M⁻¹ s⁻¹

CCN(CC)CCNC(=O)c1c(C)[nH]c(/C=C2\C(=O)Nc3ccc(F)cc32)c1C [sunitinib]
Overall residual kinase activity across the panel of kinases (panel of 270 kinases [5]): the least residual kinase activity | Number of additional kinases beyond VEGFR2 inhibited by > 50% (panel of 270 kinases [2]; [6]): 125

COc1cc2nccc(Oc3ccc(NC(=O)Nc4cc(C)on4)c(Cl)c3)c2cc1OC [tivozanib]
Number of additional kinases beyond VEGFR2 inhibited by > 50% (panel of 270 kinases [2]; [6]): more than 70
